Reference: publication PMC3148848 (Journal of medicinal chemistry, 2009)

Biological target: SARS-CoV PLpro (Severe acute respiratory syndrome coronavirus, UniProt P0C6X7)
Assay type: biochemical

SMILES: Cc1ccccc1C(=O)N[C@H](C)c1ccc2ccccc2c1 [lead]
- mode of inhibition (kinetic studies): reversible inhibitor
